Where “and” joins values, the source holds several entries; their conditions need not be identical. Equal entries are not always repeated. ± gives the expanded uncertainty stated by the source.
Columns and labels:
[1] = DTA
[2] = Molar enthalpy of transition or fusion; settings: DSC
[3] = molar heat capacity at constant pressure; settings: 101.33 kPa, Large sample (1 g) DSC

CCC(N)=O [propanamide]
Crystal
Settings	Molar enthalpy of transition or fusion [kcal/mol]	Normal melting temperature [°C]
[1]	–	79.5 ± 0.4
[2]	3.08 ± 0.263	–

CCCCCCCCCCCCCCCCCC(N)=O [octadecanamide]
[3], Crystal 2
Settings	molar heat capacity at constant pressure [J/K/mol]
208 K	318.2 ± 5
213 K	328.5 ± 5.1
218 K	336.6 ± 5.2
223 K	345.2 ± 5.4
228 K	353.1 ± 5.5
233 K	360.8 ± 5.6
238 K	367.6 ± 5.7
243 K	375.8 ± 5.9
248 K	385.6 ± 6
253 K	393.6 ± 6.1
258 K	403.2 ± 6.3

Settings	Molar enthalpy of transition or fusion, [2]	Normal melting temperature, [1]	Triple point temperature, [1] [K]
Crystal 1	13.1 kcal/mol and 13.2 kcal/mol	106.6 ± 0.5 °C and 107 ± 0.9 °C	–
Crystal 2	0.526 ± 0.0717 kcal/mol	–	298.7 ± 0.7

CCCCCCCC(N)=O [octanamide]
[3]
Settings	molar heat capacity at constant pressure [J/K/mol]
183 K, Crystal 3	164.7 ± 2.6
188 K, Crystal 3	169 ± 2.8
193 K, Crystal 3	174.2 ± 2.7
198 K, Crystal 2	180.6 ± 2.9
203 K, Crystal 2	189.7 ± 3
208 K, Crystal 2	197.1 ± 3.2
213 K, Crystal 2	204.6 ± 3.3
218 K, Crystal 2	213.2 ± 3.4
223 K, Crystal 2	224.4 ± 3.5
228 K, Crystal 2	228.2 ± 3.5
233 K, Crystal 2	232.8 ± 3.7
238 K, Crystal 2	234.3 ± 3.6
243 K, Crystal 2	235.1 ± 3.6
248 K, Crystal 2	236.3 ± 3.8
253 K, Crystal 2	233.9 ± 3.6
258 K, Crystal 2	236.1 ± 3.8
263 K, Crystal 2	238.3 ± 3.7
268 K, Crystal 2	235.4 ± 3.8
273 K, Crystal 2	241.2 ± 3.8
278 K, Crystal 2	242.7 ± 3.8
283 K, Crystal 2	243.9 ± 3.8
288 K, Crystal 2	244.9 ± 3.8
293 K, Crystal 2	246.5 ± 3.8
298 K, Crystal 2	245.1 ± 3.8
303 K, Crystal 2	246.7 ± 3.8
308 K, Crystal 1	249.3 ± 3.9
313 K, Crystal 1	251.8 ± 4

Settings	Molar enthalpy of transition or fusion, Crystal 1	Molar enthalpy of transition or fusion, Crystal 2	Molar enthalpy of transition or fusion, Crystal 3 [kcal/mol]	Normal melting temperature, Crystal 1	Triple point temperature, Crystal 2	Triple point temperature, Crystal 3 [K]
[1]	–	–	–	104 ± 1 °C and 104.6 ± 0.4 °C	304.5 ± 0.7 K and 304.5 ± 0.4 K	194.4 ± 1.7
[2]	6.6 kcal/mol and 6.5 kcal/mol	0.232 kcal/mol and 0.237 kcal/mol	0.457 ± 0.0359	–	–	–

CCCC(N)=O [butanamide]
[3], Crystal
Settings	molar heat capacity at constant pressure [J/K/mol]
183 K	96.4 ± 2
188 K	98.3 ± 2.1
193 K	101.7 ± 2.3
198 K	104.1 ± 1.9
203 K	106.4 ± 1.8
208 K	108 ± 1.9
213 K	109.7 ± 2
218 K	112.5 ± 2.4
223 K	114.3 ± 2.4
228 K	116 ± 2.2
233 K	118.1 ± 2.1
238 K	120.8 ± 2.3
243 K	123 ± 2.4
248 K	125.9 ± 2.4
253 K	127.4 ± 2.4
258 K	130.2 ± 2.2
263 K	132.4 ± 2.6
268 K	135 ± 2.1
273 K	136.8 ± 2.6
278 K	139.3 ± 2.4
283 K	141.5 ± 2.7
288 K	143.7 ± 2.5
293 K	146.4 ± 2.6
298 K	147.7 ± 2.3
303 K	150.3 ± 2.5
308 K	153.5 ± 2.5
313 K	155 ± 2.4
318 K	158.8 ± 2.7
323 K	161.4 ± 2.5

Settings	Molar enthalpy of transition or fusion, [2] [kcal/mol]	Normal melting temperature, [1] [°C]
Crystal	4.59 ± 0.311	114.2 ± 0.9
Crystal 1	4.68 ± 0.12	114.2 ± 0.4

CCCCCCCCCCCC(N)=O [dodecanamide]
[3], Crystal 2
Settings	molar heat capacity at constant pressure [J/K/mol]
198 K	213.3 ± 3.3
203 K	217.8 ± 3.6
208 K	223.3 ± 3.6
213 K	227.1 ± 3.7
218 K	231.8 ± 3.8
223 K	237.5 ± 3.7
228 K	242.2 ± 3.9
233 K	245.9 ± 3.8
238 K	251.2 ± 4
243 K	258.4 ± 4
248 K	263 ± 4.1
253 K	269.2 ± 4.2
258 K	274.3 ± 4.3
263 K	280.8 ± 4.4

Settings	Molar enthalpy of transition or fusion, [2]	Normal melting temperature, [1]	Triple point temperature, [1]
Crystal 1	8.68 kcal/mol and 8.53 kcal/mol	100.2 ± 0.4 °C and 100.7 ± 1 °C	–
Crystal 2	2.32 kcal/mol and 2.15 kcal/mol	–	321.1 ± 0.4 K and 322 ± 0.9 K

CCCCC(N)=O [pentanamide]
[3]
Settings	molar heat capacity at constant pressure [J/K/mol]
183 K, Crystal 3	111.5 ± 1.7
188 K, Crystal 3	116.1 ± 1.8
193 K, Crystal 3	118.5 ± 2.3
198 K, Crystal 3	122.5 ± 1.9
203 K, Crystal 3	128.9 ± 2
208 K, Crystal 3	133.1 ± 2.1
213 K, Crystal 2	139.1 ± 2.2
218 K, Crystal 2	145.1 ± 2.3
223 K, Crystal 2	154 ± 2.5
228 K, Crystal 2	162.5 ± 2.5
233 K, Crystal 2	175 ± 2.7
238 K, Crystal 2	183.4 ± 2.9
243 K, Crystal 2	195.4 ± 3.1
248 K, Crystal 2	200.8 ± 3.1
253 K, Crystal 2	199.8 ± 3.1
258 K, Crystal 2	196.2 ± 3
263 K, Crystal 2	191.6 ± 3.2
268 K, Crystal 2	185.8 ± 3.2
273 K, Crystal 2	189.4 ± 2.9
278 K, Crystal 2	187.1 ± 2.9
283 K, Crystal 2	188.4 ± 3
288 K, Crystal 2	188.4 ± 3
293 K, Crystal 2	190 ± 3.1
298 K, Crystal 2	190.3 ± 2.9
303 K, Crystal 2	192.6 ± 3.1
308 K, Crystal 2	196.4 ± 3.2
313 K, Crystal 2	198.4 ± 3.3
318 K, Crystal 2	202.5 ± 3.2
323 K, Crystal 2	204.5 ± 3.2

Settings	Molar enthalpy of transition or fusion, Crystal 1	Molar enthalpy of transition or fusion, Crystal 2	Molar enthalpy of transition or fusion, Crystal 3 [kcal/mol]	Normal melting temperature, Crystal 1	Triple point temperature, Crystal 2	Triple point temperature, Crystal 3 [K]
[1]	–	–	–	104.1 ± 0.4 °C and 103.6 ± 0.9 °C	365 ± 1 K and 365.4 ± 0.4 K	211.8 ± 0.9
[2]	4.28 kcal/mol and 4.61 kcal/mol	0.287 kcal/mol and 0.253 kcal/mol	0.454 ± 0.0717	–	–	–

CCCCCCCCCCCCCCCCCCCCCC(N)=O [docosanamide]
[3], Crystal
Settings	molar heat capacity at constant pressure [J/K/mol]
228 K	420.4 ± 6.6
233 K	431.8 ± 6.7
238 K	439.8 ± 6.8
243 K	449.2 ± 7
248 K	461.3 ± 7.2
253 K	470.1 ± 7.3
258 K	480.5 ± 7.5
263 K	493 ± 7.7
268 K	500.2 ± 7.8
273 K	511.9 ± 8
278 K	523.7 ± 8.2
283 K	539.7 ± 8.4
288 K	548.1 ± 8.5
293 K	561.1 ± 8.7
298 K	568.7 ± 8.8

Crystal
Settings	Molar enthalpy of transition or fusion	Normal melting temperature
[1]	–	110.2 ± 0.5 °C and 111.8 ± 1 °C
[2]	15.1 kcal/mol and 15.5 kcal/mol	–

CCCCCC(N)=O [hexanamide]
[3], Crystal 2
Settings	molar heat capacity at constant pressure [J/K/mol]
183 K	119.1 ± 2.1
188 K	121.1 ± 2.4
193 K	126.6 ± 2.2
198 K	128.6 ± 2
203 K	132.5 ± 2.4
208 K	135.8 ± 2.2
213 K	138.8 ± 2.2
218 K	142.1 ± 2.2
223 K	146.7 ± 2.3
228 K	150.8 ± 2.4
233 K	155.3 ± 2.4
238 K	160.1 ± 2.5
243 K	165.6 ± 2.7
248 K	169.6 ± 2.6
253 K	173.1 ± 2.9

Settings	Molar enthalpy of transition or fusion, [2]	Normal melting temperature, [1]	Triple point temperature, [1]
Crystal 1	3.99 kcal/mol and 4.21 kcal/mol	100 ± 0.4 °C and 100 ± 0.9 °C	–
Crystal 2	1.89 kcal/mol	–	305.1 ± 0.4 K and 306 ± 0.7 K

CCCCCCCCCC(N)=O [decanamide]
[3], Crystal 2
Settings	molar heat capacity at constant pressure [J/K/mol]
263 K	236.4 ± 3.7
268 K	238.5 ± 3.7
273 K	247.6 ± 3.9
278 K	251.1 ± 3.9
283 K	260.7 ± 4.1
288 K	266.4 ± 4.2
293 K	270.2 ± 4.2
298 K	272.4 ± 4.2
303 K	278.5 ± 4.4
308 K	287 ± 4.5
313 K	291.6 ± 4.6
318 K	297.9 ± 4.7
323 K	304.4 ± 4.8

Settings	Molar enthalpy of transition or fusion, Crystal 1	Molar enthalpy of transition or fusion, Crystal 2	Molar enthalpy of transition or fusion, Crystal 3 [kcal/mol]	Normal melting temperature, Crystal 1	Triple point temperature, Crystal 2	Triple point temperature, Crystal 3
[1]	–	–	–	97.5 ± 0.8 °C and 97.8 ± 0.4 °C	366.3 ± 1 K and 366.9 ± 0.7 K	218.7 ± 0.6 K and 218.7 ± 0.4 K
[2]	3.61 kcal/mol and 4.16 kcal/mol	4.49 kcal/mol and 5.04 kcal/mol	0.251	–	–	–

CC(C)(C)C(N)=O [2,2-dimethylpropanamide]
[3], Crystal
Settings	molar heat capacity at constant pressure [J/K/mol]
188 K	115.7 ± 2.2
193 K	117.6 ± 1.9
198 K	120.8 ± 2.5
203 K	123 ± 2.2
208 K	124.8 ± 2.5
213 K	126.4 ± 2.1
218 K	129.1 ± 2.2
223 K	131.5 ± 2.1
228 K	133.4 ± 2.6
233 K	136.6 ± 2.2
238 K	137.9 ± 2.2
243 K	140.2 ± 2.6
248 K	142.8 ± 2.3
253 K	144.5 ± 2.7
258 K	147.5 ± 2.4
263 K	149.2 ± 2.7
268 K	150.9 ± 2.5
273 K	153.8 ± 2.7
278 K	156.3 ± 2.4
283 K	158.3 ± 2.5
288 K	161.1 ± 2.6
293 K	163 ± 2.7
298 K	163.7 ± 2.7
303 K	165.4 ± 2.7
308 K	167.9 ± 2.7
313 K	170.2 ± 2.6
318 K	172.7 ± 2.7
323 K	174.2 ± 2.7

Crystal
Settings	Molar enthalpy of transition or fusion	Normal melting temperature
[1]	–	152.2 ± 0.4 °C and 152.5 ± 0.4 °C
[2]	5.76 kcal/mol and 6.12 kcal/mol	–

CC(C)C(N)=O [2-methylpropanamide]
[3], Crystal
Settings	molar heat capacity at constant pressure [J/K/mol]
183 K	100.8 ± 1.9
188 K	102.9 ± 2.3
193 K	105 ± 1.8
198 K	107.1 ± 1.8
203 K	110.5 ± 2.4
208 K	112.4 ± 2.3
213 K	114 ± 2.3
218 K	115.6 ± 2.4
223 K	118.7 ± 2.1
228 K	120.3 ± 1.9
233 K	122.8 ± 2.4
238 K	124.8 ± 1.9
243 K	127.3 ± 2.4
248 K	130.8 ± 2
253 K	132.6 ± 2.6
258 K	134.6 ± 2.5
263 K	137.6 ± 2.7
268 K	138.8 ± 2.7
273 K	141.9 ± 2.7
278 K	144.6 ± 2.6
283 K	146.5 ± 2.4
288 K	148.5 ± 2.6
293 K	150.9 ± 2.5
298 K	152.4 ± 2.7
303 K	154.1 ± 2.8
308 K	158 ± 2.7
313 K	160.2 ± 2.5
318 K	162.7 ± 2.9
323 K	164.5 ± 2.9

Crystal
Settings	Molar enthalpy of transition or fusion	Normal melting temperature
[1]	–	127.0 ± 0.4 °C and 127.2 ± 0.4 °C
[2]	4.59 kcal/mol and 4.61 kcal/mol	–

CCCCCCCCCCCCCCCC(N)=O [hexadecanamide]
[3], Crystal 2
Settings	molar heat capacity at constant pressure [J/K/mol]
208 K	267.5 ± 4.3
213 K	273.7 ± 4.7
218 K	276.5 ± 4.6
223 K	282.8 ± 4.5
228 K	289 ± 4.8
233 K	297.1 ± 4.8
238 K	302.6 ± 4.9
243 K	310.3 ± 4.9
248 K	319.5 ± 5.1
253 K	323.8 ± 5.2
258 K	331.6 ± 5.4
263 K	340.1 ± 5.5
268 K	348.1 ± 5.5
273 K	357.9 ± 5.6
278 K	364.8 ± 5.9
283 K	371.6 ± 5.9
288 K	378.1 ± 6
293 K	387.6 ± 6.1
298 K	394.3 ± 6.1
303 K	401.8 ± 6.4

Settings	Molar enthalpy of transition or fusion, [2]	Normal melting temperature, [1]	Triple point temperature, [1]
Crystal 1	10.9 kcal/mol and 10.8 kcal/mol	103 ± 0.8 °C and 102.5 ± 0.8 °C	–
Crystal 2	2.49 kcal/mol and 2.46 kcal/mol	–	355.5 ± 0.8 K and 356.1 ± 0.5 K

Reference: the NIST ThermoML archive (doi:10.1021/je700662a)
